According to patent US10213427B2 (Incyte Corporation, priority 2010, dated 2019):

target: FGFR3 enzyme (Millipore) (Homo sapiens (Human), UniProt P22607); assay: FGFR3 Enzymatic Assay; type: biochemical; conditions: FRET peptide phosphorylation, 140 μM ATP
Protocol: The inhibitor potency of compounds of the invention was measured in an enzyme assay that measures peptide phosphorylation using FRET measurements to detect product formation. Inhibitors were serially diluted in DMSO and a volume of 0.5 μL was transferred to the wells of a 384-well plate. A 10 μL volume of FGFR3 enzyme (Millipore) diluted in assay buffer (50 mM HEPES, 10 mM MgCl2, 1 mM EGTA, 0.01% Tween-20, 5 mM DTT, pH 7.5) was added to the plate and pre-incubated for 5-10 minutes. Appropriate controls (enzyme blank and enzyme with no inhibitor) were included on the plate. […] The plate was incubated at 25° C. for 1 hr. […] The plate was allowed to equilibrate for ˜1 hr before scanning the wells on a PheraStar plate reader.
GraphPad prism3 was used to analyze the data. The IC50 values were derived by fitting the data to the equation for a sigmoidal dose-response with a variable slope. Y=Bottom+(Top−Bottom)/(1+10^((Log IC50−X)*HillSlope)) where X is the logarithm of concentration and Y is the response.

Sequence of FGFR3 enzyme (Millipore) (P22607 23-806): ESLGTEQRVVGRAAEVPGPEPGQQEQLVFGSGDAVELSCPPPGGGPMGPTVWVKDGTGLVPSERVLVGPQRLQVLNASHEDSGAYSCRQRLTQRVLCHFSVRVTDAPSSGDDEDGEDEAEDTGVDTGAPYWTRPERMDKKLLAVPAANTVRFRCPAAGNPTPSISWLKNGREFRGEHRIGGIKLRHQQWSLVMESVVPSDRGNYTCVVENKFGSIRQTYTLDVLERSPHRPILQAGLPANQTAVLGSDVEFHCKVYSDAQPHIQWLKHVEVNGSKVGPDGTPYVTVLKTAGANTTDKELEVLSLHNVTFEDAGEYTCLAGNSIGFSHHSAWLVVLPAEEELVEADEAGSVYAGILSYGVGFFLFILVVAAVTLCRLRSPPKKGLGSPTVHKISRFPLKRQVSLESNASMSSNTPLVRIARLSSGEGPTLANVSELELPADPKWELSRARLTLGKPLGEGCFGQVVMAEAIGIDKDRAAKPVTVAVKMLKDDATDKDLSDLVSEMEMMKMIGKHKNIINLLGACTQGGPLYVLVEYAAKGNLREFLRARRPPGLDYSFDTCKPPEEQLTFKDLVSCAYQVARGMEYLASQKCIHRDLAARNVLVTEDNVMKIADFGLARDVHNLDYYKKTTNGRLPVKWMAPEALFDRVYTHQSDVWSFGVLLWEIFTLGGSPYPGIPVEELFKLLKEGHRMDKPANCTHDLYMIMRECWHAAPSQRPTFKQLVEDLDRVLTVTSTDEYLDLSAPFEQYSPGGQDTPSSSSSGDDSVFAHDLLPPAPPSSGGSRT

Row | SMILES | IC50 [nM]
1 | O=C(NCC(F)(F)F)Nc1cccc(-c2cnc3cc(-c4cnn(C5CCN(C(=O)CC6CCCO6)CC5)c4)cnn23)c1 (centres unmarked) [Example 50, N-[3-(7-{1-[1-(tetrahydrofuran-2-ylacetyl)piperidin-4-yl]-1H-pyrazol-4-yl}imidazo[1,2-b]pyridazin-3-yl)phenyl]-N′-(2,2,2-trifluoroethyl)urea] | < 10
2 | O=C(NCC(F)(F)F)Nc1cccc(-c2cnc3cc(-c4ccc(N5CCN(C(=O)N6CCCC6)CC5)nc4)cnn23)c1 [Example 53, N-[3-(7-{6-[4-(pyrrolidin-1-ylcarbonyl)piperazin-1-yl]pyridin-3-yl}imidazo[1,2-b]pyridazin-3-yl)phenyl]-N′-(2,2,2-trifluoroethyl)urea] | < 10
3 | CC(C(=O)NC1CC1)n1cc(-c2cnn3c(-c4cccc(NC(=O)NCC(F)(F)F)c4)cnc3c2)cn1 (centres unmarked) [Example 54, N-Cyclopropyl-2-(4-{3-[3-({[(2,2,2-trifluoroethyl)amino]carbonyl}amino)phenyl]imidazo[1,2-b]pyridazin-7-yl}-1H-pyrazol-1-yl)propanamide] | < 10
4 | CNC(=O)C(C)n1cc(-c2cnn3c(-c4cccc(NC(=O)NCC(F)(F)F)c4)cnc3c2)cn1 (centres unmarked) [Example 55, N-Methyl-2-(4-{3-[3-({[(2,2,2-trifluoroethyl)amino]carbonyl}amino)phenyl]imidazo[1,2-b]pyridazin-7-yl}-1H-pyrazol-1-yl)propanamide] | < 10
5 | CC(C(=O)N(C)C)n1cc(-c2cnn3c(-c4cccc(NC(=O)NCC(F)(F)F)c4)cnc3c2)cn1 (centres unmarked) [Example 56, N,N-Dimethyl-2-(4-{3-[3-({[(2,2,2-trifluoroethyl)amino]carbonyl}amino)phenyl]imidazo[1,2-b]pyridazin-7-yl}-1H-pyrazol-1-yl)propanamide] | < 10
6 | CC(C(=O)NC1CCOCC1)n1cc(-c2cnn3c(-c4cccc(NC(=O)NCC(F)(F)F)c4)cnc3c2)cn1 (centres unmarked) [Example 57, N-(Tetrahydro-2H-pyran-4-yl)-2-(4-{3-[3-({[(2,2,2-trifluoroethyl)amino]carbonyl}amino)phenyl]imidazo[1,2-b]pyridazin-7-yl}-1H-pyrazol-1-yl)propanamide] | < 10
7 | CC(C(=O)N1CCOCC1)n1cc(-c2cnn3c(-c4cccc(NC(=O)NCC(F)(F)F)c4)cnc3c2)cn1 (centres unmarked) [Example 58, N-(3-{7-[1-(1-Methyl-2-morpholin-4-yl-2-oxoethyl)-1H-pyrazol-4-yl]imidazo[1,2-b]pyridazin-3-yl}phenyl)-N′-(2,2,2-trifluoroethyl)urea] | < 10
8 | CC(C(=O)N(C)C1CCOCC1)n1cc(-c2cnn3c(-c4cccc(NC(=O)NCC(F)(F)F)c4)cnc3c2)cn1 (centres unmarked) [Example 59, N-Methyl-N-(tetrahydro-2H-pyran-4-yl)-2-(4-{3-[3-({[(2,2,2-trifluoroethyl)amino]carbonyl}amino)phenyl]imidazo[1,2-b]pyridazin-7-yl}-1H-pyrazol-1-yl)propanamide] | < 10
9 | CC(C(=O)N1CCN(C)CC1)n1cc(-c2cnn3c(-c4cccc(NC(=O)NCC(F)(F)F)c4)cnc3c2)cn1 (centres unmarked) [Example 60, N-[3-(7-{1-[1-Methyl-2-(4-methylpiperazin-1-yl)-2-oxoethyl]-1H-pyrazol-4-yl}imidazo[1,2-b]pyridazin-3-yl)phenyl]-N′-(2,2,2-trifluoroethyl)urea] | < 10
10 | CC(C(=O)NCc1ccccn1)n1cc(-c2cnn3c(-c4cccc(NC(=O)NCC(F)(F)F)c4)cnc3c2)cn1 (centres unmarked) [Example 61, N-(Pyridin-2-ylmethyl)-2-(4-{3-[3-({[(2,2,2-trifluoroethyl)amino]carbonyl}amino)phenyl]imidazo[1,2-b]pyridazin-7-yl}-1H-pyrazol-1-yl)propanamide] | < 10
11 | CC(C(=O)NCCN1CCCC1=O)n1cc(-c2cnn3c(-c4cccc(NC(=O)NCC(F)(F)F)c4)cnc3c2)cn1 (centres unmarked) [Example 62, N-[2-(2-Oxopyrrolidin-1-yl)ethyl]-2-(4-{3-[3-({[(2,2,2-trifluoroethyl)amino]carbonyl}amino)phenyl]imidazo[1,2-b]pyridazin-7-yl}-1H-pyrazol-1-yl)propanamide] | < 10
12 | CC(C(=O)NCC#N)n1cc(-c2cnn3c(-c4cccc(NC(=O)NCC(F)(F)F)c4)cnc3c2)cn1 (centres unmarked) [Example 66, N-(Cyanomethyl)-2-(4-{3-[3-({[(2,2,2-trifluoroethyl)amino]carbonyl}amino)phenyl]imidazo[1,2-b]pyridazin-7-yl}-1H-pyrazol-1-yl)propanamide] | < 10
13 | CC(C(=O)N1CCC(C#N)C1)n1cc(-c2cnn3c(-c4cccc(NC(=O)NCC(F)(F)F)c4)cnc3c2)cn1 (centres unmarked) [Example 67, N-[3-(7-{1-[2-(3-Cyanopyrrolidin-1-yl)-1-methyl-2-oxoethyl]-1H-pyrazol-4-yl}imidazo[1,2-b]pyridazin-3-yl)phenyl]-N′-(2,2,2-trifluoroethyl)urea] | < 10
14 | COC1CCN(C(=O)C(C)n2cc(-c3cnn4c(-c5cccc(NC(=O)NCC(F)(F)F)c5)cnc4c3)cn2)C1 (centres unmarked) [Example 68, N-[3-(7-{1-[2-(3-Methoxypyrrolidin-1-yl)-1-methyl-2-oxoethyl]-1H-pyrazol-4-yl}imidazo[1,2-b]pyridazin-3-yl)phenyl]-N′-(2,2,2-trifluoroethyl)urea] | < 10
15 | COC1CCN(C(=O)C(C)n2cc(-c3cnn4c(-c5cccc(NC(=O)NCC(F)(F)F)c5)cnc4c3)cn2)CC1 (centres unmarked) [Example 69, N-[3-(7-{1-[2-(4-Methoxypiperidin-1-yl)-1-methyl-2-oxoethyl]-1H-pyrazol-4-yl}imidazo[1,2-b]pyridazin-3-yl)phenyl]-N′-(2,2,2-trifluoroethyl)urea] | < 10
16 | CC(C(=O)N1CCC(C#N)CC1)n1cc(-c2cnn3c(-c4cccc(NC(=O)NCC(F)(F)F)c4)cnc3c2)cn1 (centres unmarked) [Example 70, N-[3-(7-{1-[2-(4-Cyanopiperidin-1-yl)-1-methyl-2-oxoethyl]-1H-pyrazol-4-yl}imidazo[1,2-b]pyridazin-3-yl)phenyl]-N′-(2,2,2-trifluoroethyl)urea] | < 10
17 | CC(C(=O)NC1CCN(C)CC1)n1cc(-c2cnn3c(-c4cccc(NC(=O)NCC(F)(F)F)c4)cnc3c2)cn1 (centres unmarked) [Example 71, N-(1-Methylpiperidin-4-yl)-2-(4-{3-[3-({[(2,2,2-trifluoroethyl)amino]carbonyl}amino)phenyl]imidazo[1,2-b]pyridazin-7-yl}-1H-pyrazol-1-yl)propanamide] | < 10
18 | CC(C(=O)N1CC(C#N)C1)n1cc(-c2cnn3c(-c4cccc(NC(=O)NCC(F)(F)F)c4)cnc3c2)cn1 (centres unmarked) [Example 72, N-[3-(7-{1-[2-(3-Cyanoazetidin-1-yl)-1-methyl-2-oxoethyl]-1H-pyrazol-4-yl}imidazo[1,2-b]pyridazin-3-yl)phenyl]-N′-(2,2,2-trifluoroethyl)urea] | < 10
19 | Cn1ccc(S(=O)(=O)N2CC(CC#N)(n3cc(-c4cnn5c(-c6cccc(NC(=O)NCC(F)(F)F)c6)cnc5c4)cn3)C2)n1 [Example 73, N-{3-[7-(1-{3-(Cyanomethyl)-1-[(1-methyl-1H-pyrazol-3-yl)sulfonyl]azetidin-3-yl}-1H-pyrazol-4-yl)imidazo[1,2-b]pyridazin-3-yl]phenyl}-N′-(2,2,2-trifluoroethyl)urea] | < 10
20 | Cc1oncc1S(=O)(=O)N1CC(CC#N)(n2cc(-c3cnn4c(-c5cccc(NC(=O)NCC(F)(F)F)c5)cnc4c3)cn2)C1 [Example 74, N-{3-[7-(1-{3-(Cyanomethyl)-1-[(5-methylisoxazol-4-yl)sulfonyl]azetidin-3-yl}-1H-pyrazol-4-yl)imidazo[1,2-b]pyridazin-3-yl]phenyl}-N′-(2,2,2-trifluoroethyl)urea] | < 10
21 | COCC(=O)N1CC(CC#N)(n2cc(-c3cnn4c(-c5cccc(NC(=O)NCC(F)(F)F)c5)cnc4c3)cn2)C1 [Example 75, N-[3-(7-{1-[3-(Cyanomethyl)-1-(methoxyacetyl)azetidin-3-yl]-1H-pyrazol-4-yl}imidazo[1,2-b]pyridazin-3-yl)phenyl]-N′-(2,2,2-trifluoroethyl)urea] | < 10
22 | CN(C)CC(=O)N1CC(CC#N)(n2cc(-c3cnn4c(-c5cccc(NC(=O)NCC(F)(F)F)c5)cnc4c3)cn2)C1 [Example 76, N-{3-[7-(1-{3-(Cyanomethyl)-1-[(dimethylamino)acetyl]azetidin-3-yl}-1H-pyrazol-4-yl)imidazo[1,2-b]pyridazin-3-yl]phenyl}-N′-(2,2,2-trifluoroethyl)urea] | < 10
23 | N#CCC1(n2cc(-c3cnn4c(-c5cccc(NC(=O)NCC(F)(F)F)c5)cnc4c3)cn2)CN(CC2CC2)C1 [Example 83, N-[3-(7-{1-[3-(Cyanomethyl)-1-(cyclopropylmethyl)azetidin-3-yl]-1H-pyrazol-4-yl}imidazo[1,2-b]pyridazin-3-yl)phenyl]-N′-(2,2,2-trifluoroethyl)urea] | 10 to 25
24 | CC(CC#N)n1cc(-c2cnn3c(-c4cccc(NC(=O)NCC(F)(F)F)c4)cnc3c2)cn1 (centres unmarked) [Example 89, N-(3-{7-[1-(2-Cyano-1-methylethyl)-1H-pyrazol-4-yl]imidazo[1,2-b]pyridazin-3-yl}phenyl)-N′-(2,2,2-trifluoroethyl)urea] | < 10
25 | N#CCC(n1cc(-c2cnn3c(-c4cccc(NC(=O)NCC(F)(F)F)c4)cnc3c2)cn1)C(F)(F)F (centres unmarked) [Example 90, N-[3-(7-{1-[1-(Cyanomethyl)-2,2,2-trifluoroethyl]-1H-pyrazol-4-yl}imidazo[1,2-b]pyridazin-3-yl)phenyl]-N′-(2,2,2-trifluoroethyl)urea] | < 10
26 | N#CCC(c1ccco1)n1cc(-c2cnn3c(-c4cccc(NC(=O)NCC(F)(F)F)c4)cnc3c2)cn1 (centres unmarked) [Example 91, N-[3-(7-{1-[2-Cyano-1-(2-furyl)ethyl]-1H-pyrazol-4-yl}imidazo[1,2-b]pyridazin-3-yl)phenyl]-N′-(2,2,2-trifluoroethyl)urea] | < 10
